Measured values from article PMC2785468, “Androgen Receptor Mutations Associated with Androgen Insensitivity Syndrome: A High Content Analysis Approach Leading to Personalized Medicine” (PLoS ONE, 2009).

Molecular target: T1, AR-F764L (Homo sapiens, UniProt P10275, F765L)
T1 construct: expressed in transfected cells
T1 sequence (P10275 1-920 F765L): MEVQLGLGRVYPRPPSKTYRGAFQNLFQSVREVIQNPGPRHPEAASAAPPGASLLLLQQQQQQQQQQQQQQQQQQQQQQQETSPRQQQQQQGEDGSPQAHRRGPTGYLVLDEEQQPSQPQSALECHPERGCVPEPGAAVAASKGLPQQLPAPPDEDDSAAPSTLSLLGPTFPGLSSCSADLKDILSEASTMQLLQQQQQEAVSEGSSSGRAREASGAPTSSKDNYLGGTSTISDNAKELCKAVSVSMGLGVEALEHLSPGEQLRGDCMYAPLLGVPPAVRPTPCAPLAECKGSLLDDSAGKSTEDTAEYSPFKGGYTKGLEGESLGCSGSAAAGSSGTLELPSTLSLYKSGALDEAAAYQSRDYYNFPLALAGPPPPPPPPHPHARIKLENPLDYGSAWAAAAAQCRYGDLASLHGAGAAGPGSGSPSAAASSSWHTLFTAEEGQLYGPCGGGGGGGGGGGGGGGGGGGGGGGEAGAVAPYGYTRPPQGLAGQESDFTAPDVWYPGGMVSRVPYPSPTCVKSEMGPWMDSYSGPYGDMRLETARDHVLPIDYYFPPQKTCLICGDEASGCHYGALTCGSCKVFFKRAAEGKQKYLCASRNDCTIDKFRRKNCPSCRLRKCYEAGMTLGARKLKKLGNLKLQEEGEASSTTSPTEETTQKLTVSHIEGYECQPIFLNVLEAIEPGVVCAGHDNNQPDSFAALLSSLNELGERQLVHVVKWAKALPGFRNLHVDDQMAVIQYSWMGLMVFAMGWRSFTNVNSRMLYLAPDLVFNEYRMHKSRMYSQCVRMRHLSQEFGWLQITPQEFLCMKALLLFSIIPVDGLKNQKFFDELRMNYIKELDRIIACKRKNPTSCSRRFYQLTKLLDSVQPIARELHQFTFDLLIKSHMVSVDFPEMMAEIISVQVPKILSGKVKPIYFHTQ
Assay type: cell-based
Method: To determine the global effect of the various AIS mutations on AR signaling, each was analyzed using HCA. This technology allows simultaneous quantification of AR protein expression, nuclear translocation, subnuclear patterning, and transcriptional activity. The analysis was done in HeLa cell lines stably transfected with wild type or mutant ARs fused with green fluorescent protein, or using AR immunofluorescence in primary cultures of genital skin fibroblasts generated from foreskin biopsies of historical AIS patients, or of normal neonates undergoing circumcision at birth. To prevent the effects of receptor over-expression, stable HeLa cells were carefully selected to express AR levels similar to LNCaP as previously described. Prior to ligand treatment, HeLa cells were transfected with the pARR2PB-dsRED2skl reporter plasmid, consisting of the AR responsive promoter ARR2PB [31] driving expression of the red fluorescent protein reporter dsRED2skl engineered to target peroxisomes.
For studies utilizing HeLa GFP-AR cell lines, twenty-four hours before transfection with pARR2PB-dsRED2skl, cells were plated onto 100 mm plastic dishes in medium supplemented with 5% charcoal-stripped and dialyzed-FBS. Transient introduction of the pARR-2PB-dsRED2skl reporter construct was performed using 6.0 µg reporter plasmid and 6.0 µg carrier DNA (BlueScript, Stratagene, San Diego, CA) using Transfectin (Biorad) following standard protocols. After 8-hour incubation, DNA/lipid complexes were removed. Cells were then trypsinized and replated at 10,000 cells per well in Nunc poly-D-lysine treated 96-well optical glass bottom plates and incubated an additional 12 hours to allow for cell adhesion. […] Compound dilutions and final addition to multi-well plates were performed using a Beckman Biomek NX robotic platform to ensure repeatability from experiment to experiment. After incubation was complete, using the Biomek NX robot, plates were washed with PBS and fixed for 20 min at RT in 4% formaldehyde prepared in CSK buffer (80 mM potassium PIPES, pH 6.8, 5 mM EGTA, 2 mM MgCl2). After fixation, cells were briefly permeabilized (5 min) with 0.5% Triton-X and prepared for imaging by washing in PBS, aspirating the washed solution, and adding a 1 ng/ml DAPI solution to stain DNA and a generic protein stain (CellMask, Invitrogen) to facilitate cell and nuclear image segmentation. Cells were imaged in PBS.
Cells were imaged using the Cell Lab IC-100 Image Cytometer (IC-100; Beckman Coulter) platform that consists of 1) Nikon Eclipse TE2000-U Inverted Microscope (Nikon; Melville, NY); 2) Chroma 82000 triple band filter set (Chroma; Brattleboro, VT); 3) an imaging camera: Hamamatsu ORCA-ER Digital CCD camera (Hamamatsu; Bridgewater, NJ); and 4) a focusing camera: Photonics COHU Progressive scan camera (Photonics; Oxford, MA). […] In general, 49 to 64 images were captured per well for image analysis.
While our initial AR studies using HTM were based upon CytoShop (Beckman-Coulter), [15], [33], these approaches were refined in the current work with the more robust server-client Pipeline Pilot image analysis platform (Basic and Advanced Imagine Collections, Pipeline Pilot 7.5, Accelrys, San Diego). Initially, the background signal was removed from all images using plate- and channel-specific correction images, generated by the sum projection of >600 randomly selected images for each channel from the image set. This allows for a pixel-by-pixel background subtraction that compensates any consistent uneven background artifacts in the image set. Furthermore, users are able to customize the degree of background subtraction by applying a multiplier to each correction image, useful for identification of objects such as nuclei or cell borders. After background subtraction, nuclear masks were generated using a combination of non-linear least squares and watershed-from-markers image manipulations of the DAPI images (Fig. 1B).

C[C@@H]1CC2=CC(=O)CC[C@@H]2[C@H]2CC[C@@]3(C)[C@@H](CC[C@]3(C)O)[C@@H]21 [Mb, Mibolerone]
recovery of AR-F764 activity, % of control (AR-F764L, discussion, test not specified): 45%
hyperspeckling response (HeLa AR-F764L): 132 fold increase
induction of transcriptional activity (HeLa AR-F764L): 36 fold
increase in the percent of nuclear GFP signal (HeLa AR-F764L, vs untreated): 31%
Nuclear Translocation, Max (HeLa F764L, % signal present in the nucleus): 73.2±0.8%
Hyperspeckling, Max (HeLa F764L, absolute numerical measurement): 965±8
Transcriptional Activity, Max (HeLa F764L, pARR2PB-dsRED2skl reporter, absolute numerical measurement): 92.9±2.2
